The text below walks through data of patent US5324725A, “7-fused 2-(piperazinoalkyl) indole derivatives, intermediates and compositions thereof” (Kali-Chemie Pharma GmbH, priority 1991, dated 1994).

In the test the target is T1, 5-lipoxygenase (Mus musculus, UniProt P48999).
T1 construct: A cell suspension containing peritoneal cells of male mice 8-10 weeks old was obtained; endogenous in cells; host or cells: mouse peritoneal macrophages (male mice 8-10 weeks old), zymosan-stimulated
T1 sequence (P48999 1-674): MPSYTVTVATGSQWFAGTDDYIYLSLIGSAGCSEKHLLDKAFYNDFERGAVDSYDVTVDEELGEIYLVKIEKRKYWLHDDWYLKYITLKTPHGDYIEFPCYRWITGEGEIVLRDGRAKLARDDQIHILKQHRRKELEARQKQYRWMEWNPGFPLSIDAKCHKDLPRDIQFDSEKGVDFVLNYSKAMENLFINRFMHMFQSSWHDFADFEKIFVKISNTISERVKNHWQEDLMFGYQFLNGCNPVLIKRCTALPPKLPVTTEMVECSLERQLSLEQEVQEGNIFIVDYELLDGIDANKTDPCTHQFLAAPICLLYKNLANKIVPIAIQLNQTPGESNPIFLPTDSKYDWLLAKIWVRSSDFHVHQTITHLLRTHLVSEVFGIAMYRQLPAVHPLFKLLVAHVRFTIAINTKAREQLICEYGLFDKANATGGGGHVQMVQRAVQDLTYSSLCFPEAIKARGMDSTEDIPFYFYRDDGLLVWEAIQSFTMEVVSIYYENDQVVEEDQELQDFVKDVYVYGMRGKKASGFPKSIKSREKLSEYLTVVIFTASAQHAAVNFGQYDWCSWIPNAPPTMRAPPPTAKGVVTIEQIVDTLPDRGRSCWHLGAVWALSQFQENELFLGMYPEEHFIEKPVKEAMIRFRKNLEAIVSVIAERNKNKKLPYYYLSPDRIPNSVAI
Put plainly: 5-lipoxygenase inhibition: release of LTC4 from zymosan-stimulated mouse peritoneal macrophage cells. The class given is cell-based. To be noted: 10^-5 mol/l, read-out: In vitro % inhibition effect on the release of LTC4. The source says: 5. In vitro determination of cyclooxygenase inhibition and 5-lipoxygenase inhibition.
After activation of the cell, arachidonic acid contained in cell membranes is metabolized in two ways. Leukotrienes, inter alia leukotriene C4, are formed under the action of the enzyme 5-lipoxygenase (5-LO), and prostanoids are formed under the action of the enzyme cyclooxygenase (CO). In in vitro systems, the metabolites are secreted from the cell.
To investigate the cyclooxygenase-inhibiting and the 5-lipoxygenase-inhibiting properties, the inhibitory effect of the test substances on the biosynthesis of the arachidonic acid derivatives leukotriene C4 (LTC4) and 6-ketoprostaglandin F1 α (6-keto-PGF1 α) is determined in vitro on mouse peritoneal macrophage cells. This was accomplished by determining the LTC4 and 6-keto-PGF1 α contents in a culture medium of mouse peritoneal macrophage cells by zymosan stimulation as described by Scott et al. (J. Exp. Med. 152 (1980), 324-335) and by Fradin et al. (Prostaglandins, 33 (1987), 579-589).
A cell suspension containing peritoneal cells of male mice 8-10 weeks old was obtained in a known manner. A commercially available cell culture solution (RPMI 1640 from Messrs. Gibco) was used to which heparin (I0 international units/ml) and antibiotics were added according to the recipe of Bonney et al. (Biochem. J. 176 (1978) 422-433). The cell suspension was adjusted to a cell concentration of 10^6 cells per ml and distributed uniformly on titer plates containing […] (wells). These were kept for two hours in a humidified incubator filled with air enriched with 7% CO2. Cells not adhering to the titer cell walls were then removed by washing. The remaining macrophage cells adhering to the walls were incubated for about 12 hours in a suspension medium to which 0.1% bovine serum albumin (BSA) were added. The suspension medium was then replaced by a Hanks balanced salt solution (HBSS) containing 10 mM Hepes (hydroxyethyl-piperazinoethanesulfonic acid), to which a 0.1% strength solution of the test substances in aqueous, 1% strength dimethylformamide or only the solvent had been added. After 15 minutes the arachidonic acid metabolism was stimulated by adding 10 particles of zymosan (=glycoproteinmixture, isolated from cell walls of beer yeast, Saccharomyces cerevisiae, manufactured by Sigma Chemical Co., Munich) per titer cell. After 2 hours, samples of each of the supernatant liquids were investigated for their 6-keto-PGF1 α and LTC4 contents by means of an enzyme immunoassay (EIA) carried out by the method of Pradelles et al. (Analytical Chem. 57 (1985), 1170-1173). The determination of LTC4 and the determination of 6-keto-PGF1 α were each carried out in comparison with a comparative scale on suitable dilutions of the samples (1:50 to 1:250 for the LTC4 determination and 1:250 to 1:1250 for the 6-keto-PGF1 α determination). To determine the inhibitory effect of a 10^-5 molar concentration of the compounds, the amount of reference eicosanoids was determined and the inhibitory effect was calculated from this in % inhibition compared to the measurements of the zymosan controls.
For the compound `CCCCC1CCc2cccc3c(CCN4CCN(c5cc(C)ccn5)CC4)c(C)n1c23` (stereo not drawn) [Example 73, 4-n-butyl-5,6-dihydro-2-methyl-1-{2-[4-(4-methylpyridin-2-yl)piperazin-1-yl]ethyl}-4H-pyrrolo[3,2,1-ij]quinoline], the inhibition at 10 µM worked out at 90%. For the compound `CCCCC1CCc2cc(O)cc3c(CCN4CCN(c5cc(C)ccn5)CC4)c(C)n1c23` (stereo not drawn) [Example 76], the inhibition at 10 µM was found to be 75%. Take `Cc1ccnc(N2CCN(CCc3c(C)n4c5c(cc(Cc6ccccc6)cc35)CCC4)CC2)c1` [Example 77]: the inhibition at 10 µM turned out to be 74%. Consider `Cc1ccnc(N2CCN(CCc3c(C)n4c5c(c(Cl)cc(Cl)c35)OCC4)CC2)c1` [Example 79], for which the inhibition at 10 µM is 71%.

For the compound `CNc1cc2c3c(c1)c(CCN1CCN(c4cc(C)ccn4)CC1)c(C)n3CCC2` [Example 80], the inhibition at 10 µM was 39%. With `Cc1ccnc(N2CCN(CCc3c(C)n4c5c(cc(N(C)C)cc35)CCC4)CC2)c1` [Example 81], the inhibition at 10 µM worked out at 29%. Then `Cc1ccnc(N2CCN(CCc3c(C)n4c5c(cc(C(=O)C6CCCCC6)cc35)CCC4)CC2)c1` [Example 83], with 34%; and `Cc1ccnc(N2CCN(CC(O)c3c(C4CCCCC4)n4c5c(cccc35)CCC4)CC2)c1` (stereo not drawn) [Example 85], with 62%; and `Cc1ccnc(N2CCN(CCc3c(C)n4c5c(cccc35)CCC4C3CCCCC3)CC2)c1` (stereo not drawn) [Example 87], with 23%. Take `Cc1ccnc(N2CCN(CCc3c(C)n4c5c(c(C(O)C(C)C)ccc35)SCC4)CC2)c1` (stereo not drawn) [Example 89]: the inhibition at 10 µM is 51%.

As for `Cc1ccnc(N2CCN(CCc3c(C)n4c5c(ccc(C(O)C(C)C)c35)SCC4)CC2)c1` (stereo not drawn) [Example 90], the inhibition at 10 µM was 66%. The value for `Cc1ccnc(N2CCN(CCc3c(C)n4c5c(ccc(C(=O)C(C)C)c35)SCC4)CC2)c1` [Example 91] was 81%.
